Results reported in patent publication US20040253278A1, “Breath Freshening and Oral Cleansing Product Using Carvacrol” (priority 2002, published 2004).
In brackets after ≈: the same amount, converted by molar mass.

What was measured:
Format in all cases: cell-based
[1] = system: both bacteria; assay: MIC of positive control, bacteria not named; settings: "for both bacteria"
Experimental: (§1) In vitro tests were conducted with a gram positive supragingival plaque bacterium, Streptococcus mutans. In addition, two subgingival plaque bacteria associated with oral malodor were tested, Porphyromonas gingivalis and Fusobacterium nucleatum. The MIC (Minimum Inhibitory Concentrations) study protocol is as follows. Chlorhexidine was used as a positive control and sterile water was used as a negative control. Carvacrol was suspended in 10% methanol with 3.8% Tween 80. […] 96 well microtiter plates were used for this study. Each well contained 5×10^5 colony forming units/ml of bacteria, serially diluted agents and bacterial growth medium. All bacterial cultures were incubated at 37° C. and stationary. Bacterial growth was estimated spectrophotometrically at 660 nm, after 48 hours. The MIC for each test bacteria was defined as the minimum concentration of test compound limiting turbidity to […].

[2] = system: both bacteria; assay: MBC of positive control, bacteria not named
Experimental: (§2) The MBC (Minimum bactericidal concentrations) were determined using the 96 well microtiter plate serial dilutions as described above for MIC studies. Serial dilution of cultures in wells showing no visible growth were performed and 10 microliters of culture were plated in triplicate on blood agar plates. Viable colonies were scored after incubation of the plates for 48 hours at 37° C. For each test bacterium, the number of CFU/ml were determined in the initial inoculum. The MBC was defined as the lowest concentration of a test compound that killed at least 99.9% of the cells present in the initial inoculum.

[3] = system: Fusobacterium nucleatum; assay: MBC (minimum bactericidal concentration), plating on blood agar; settings: 48 h
Experimental: as §2

[4] = system: Porphyromonas gingivalis; assay: as above; settings: 48 h
Experimental: as §2

[5] = system: Streptococcus mutans; assay: as above; settings: 48 h
Experimental: as §2

[6] = system: Fusobacterium nucleatum; assay: MIC (minimum inhibitory concentration), 96 well microtiter serial dilution; settings: 48 h
Experimental: as §1

[7] = system: Porphyromonas gingivalis; assay: as above; settings: 48 h
Experimental: as §1

[8] = system: Streptococcus mutans; assay: as above; settings: 48 h
Experimental: as §1

Row | SMILES | MIC [1] [µg/mL] | MBC [2] [µg/mL] | MBC [3] [µg/mL] | MBC [4] [µg/mL] | MBC [5] [µg/mL] | MIC [6] [µg/mL] | MIC [7] [µg/mL] | MIC [8] [µg/mL]
1 | [H]/N=C(\N/C(=N/[H])NCCCCCCNC(=N)NC(=N)Nc1ccc(Cl)cc1)Nc1ccc(Cl)cc1 [Cholorhexidine, Chlorhexidine] | 1.25 | 1.25 |  |  |  |  |  | 
2 | Cc1ccc(C(C)C)cc1O [carvacrol] |  |  | 125 (≈ 832 µM) | 125 (≈ 832 µM) | 125 (≈ 832 µM) | 125 (≈ 832 µM) | 125 (≈ 832 µM) | 250 (≈ 1660 µM)
